Measured values taken from ChEMBL document CHEMBL1123912, “Analogues of the cytostatic and antimitogenic agents chlamydocin and HC-toxin: synthesis and biological activity of chloromethyl ketone and diazomethyl ketone functionalized cyclic tetrapeptides” (J Med Chem, 1987).
Values after ≈ are worked out from the molar mass of the structure shown.

species: Mus musculus; experiment: Compound was evaluated for the inhibition of Con A (concanavalin A) stimulated murine thymocyte mitogenesis.; format: functional; settings: not given

SMILES | IC50
C[C@@H]1NC(=O)[C@H](C)NC(=O)[C@@H]2CCCN2C(=O)[C@H](CCCCCC(=O)CCl)NC1=O | 0.04 µg/mL (≈ 0.0903 µM)
C[C@@H]1NC(=O)[C@H](Cc2ccccc2)NC(=O)[C@@H]2CCCN2C(=O)[C@H](CCCCCC(=O)CCl)NC1=O | 0.1 µg/mL (≈ 0.193 µM)
CC1(C)NC(=O)[C@H](CCCCCC(=O)CCl)NC(=O)[C@H]2CCCN2C(=O)[C@H](Cc2ccccc2)NC1=O | 0.01 µg/mL (≈ 0.0188 µM)
C[C@@H]1NC(=O)[C@H](C)NC(=O)[C@@H]2CCCN2C(=O)[C@H](CCCCCC(=O)C=[N+]=[N-])NC1=O | > 2 µg/mL
CC1(C)NC(=O)[C@H](CCCCCC(=O)[C@H]2CO2)NC(=O)[C@H]2CCCN2C(=O)[C@H](Cc2ccccc2)NC1=O [CHLAMYDOCIN] | 0.003 µg/mL (≈ 0.0057 µM)

test system: P815; experiment: Compound was evaluated for the inhibition of cell growth in mouse P-815 mastocytoma cells.; format: functional; settings: read-out: ED50 (the source's name)

SMILES | EC50
CC1(C)NC(=O)[C@H](CCCCCC(=O)[C@H]2CO2)NC(=O)[C@H]2CCCN2C(=O)[C@H](Cc2ccccc2)NC1=O [CHLAMYDOCIN] | 0.36 ng/mL (≈ 0.000684 µM)
